Key:
[1] = tested on: human Schwann cells (HSC); experiment: CCK8 metabolic activity of printed thin slabs, HSC in GMHA; type: cell-based; settings: 35% vs 0% IDX; 2.5% GMHA, 0.5% GelMA, 10 million/mL HSC; 7 days culture; n=6, p>0.1
Excerpt: (§1) In order to verify IDX's biocompatibility with various biomaterials and cell types, we performed thin slab bioprinting using three commonly used formulas: human umbilical vein endothelial cells (HUVEC) in GelMA, human Schwann cells (HSC) in glycidyl methacrylate hyaluronic acid (GMHA), and C2C12 in alginate methacrylate (AlgMA). FIGS. 7A and 7B are plots of the refractive indices of these common bioinks at various biopolymer and IDX concentrations, respectively. Since the ideal IDX concentration range varies between 20% and 35%, we chose to compare 3D printed tissues in which 0% or 35% IDX was used. As will be apparent to those of skill in the art, other bioinks may be used including, but not limited to, multi-arm PEG (polyethylene glycol), Gel-NB (Gelatin-norbornene), Gel-SH (Gelatin-thiol), and combinations thereof, including HA-NB, HA-SH, etc. Furthermore, the sample cell types described herein are not intended to be limiting but were selected to evaluate the process's impact on viability of mammalian cells. Applications of the inventive approach go well beyond mammalian tissue/organ fabrication. […]
(§2) Cell viability in the printed thin slabs was quantified with Cell Counting Kit-8 (CCK-8, K1018, ApexBio). […] After incubation, 200 μL supernatant was collected from each sample and their OD at 450nm was measured with Tecan Infinite 200 pro.

[2] = tested on: C2C12; experiment: CCK8 metabolic activity of printed thin slabs, C2C12 in AlgMA; type: cell-based; settings: 35% vs 0% IDX; 1% AlgMA, 0.25% GelMA, 10 million/mL C2C12; 7 days culture; n=6, p>0.1
Excerpt: as §1, §2

[3] = Scattering properties of cell-laden bioink (Monte-Carlo with particle swarm optimization); type: physicochemical
Method: The scattering effect of the material is usually characterized by scattering coefficient, anisotropy, and reduced scattering coefficient. To further verify that a proper concentration of IDX can effectively reduce the bioinks' scattering effect, bioinks comprising 5% GelMA, 40 million/mL 293T cells, and various IDX concentrations (0%, 20%, 25%, 30%, or 35%) were prepared. An approach that combined Monte-Carlo simulation and particle swarm optimization algorithm was used to determine the bioink's scattering properties at the working wavelength of the bioprinter (405 nm). […] The bioink without refractive index tuning has a scattering coefficient of 11.76 mm^−1, and a reduced scattering coefficient of 0.164 mm^−1. […] By carefully tuning the concentration of contrast agent, scattering can potentially be further reduced.
We used a well-developed 3D Monte-Carlo method combined with a particle swarm optimization algorithm (57) to numerically calculate the scattering properties of the cell-laden bioinks. The total transmittance and total reflectance at 405 nm of the 1 mm thick bioink containing 40 million/mL cells were measured using a UV-Vis-NIR spectroscope (Perkin Elmer, Lambda 1050) with integrating sphere. The angular intensity distribution of the scattered light at 405 nm was measured with a simple optical goniometer type setup. Given arbitrary optical properties, the total transmittance, total reflectance, and angular distribution can be calculated by the Monte-Carlo method. We then used a particle swarm optimization algorithm on MATLAB (MathWorks, Natick MA) to acquire the optical properties which best fit the measured total transmittance, total reflectance, and angular distribution. FIG. 2E provides sample line graphs showing that the simulated angular distribution of the scattered light well fits the measurement values. Next, we used the acquired scattering coefficient and anisotropy to simulate the spatial distribution of light inside the bioink with Monte-Carlo method. This spatial distribution is also the point spread function of scattering.

[4] = tested on: human umbilical vein endothelial cells (HUVEC); experiment: CCK8 metabolic activity of printed thin slabs, HUVEC in GelMA; type: cell-based; settings: 35% vs 0% IDX; 5% GelMA, 2 million/mL HUVEC; 7 days culture; n=6, p>0.1
Excerpt: as §1, §2

[5] = Refractive index measurement at 405 nm; type: physicochemical
Method: Tests verified that IDX can effectively tune the refractive index by measuring the refractive index of bioinks comprising 5% GelMA and various concentrations of IDX at the working wavelength of the bioprinter (405 nm). For refractive index measurement, mixtures of 5% GelMA with 0%, 20%, 25%, 30%, or 35% IDX, and PBS as solvent were prepared. […] The refractive indices of bioinks comprising 5% GelMA and 0% IDX, as well as the as-purchased IDX solution (OptiPrep™, Sigma-Aldrich) which contains 60% IDX, are also plotted for reference.
The refractive index of bioink can be measured using a simple refractometer with a 405 nm laser. […] The converging beam enters the prism-sample interface at different angles, and total internal reflection (TIR) happens at some of these angles. The diverging beam exits the prism, is collimated by a lens, and collected by a camera. […] In order to accurately relate the TIR boundary position on the captured image to the actual reflecting angle, water and isopropanol, whose refractive index and thus TIR critical angles are known, were used to calibrate this relation.

[6] = tested on: HUVEC; experiment: Phalloidin cytoskeleton staining of printed HUVEC slabs; type: cell-based, human; settings: 0% vs 35% IDX, day 7
Excerpt: (§3) In addition, live/dead staining was also used to characterize cell viability. HUVEC in GelMA bioink is printed as thin slabs with either 0% or 35% IDX. […] Furthermore, the cytoskeleton of HUVECs was stained using phalloidin to visualize the cells' morphology.

[7] = tested on: HUVEC; experiment: RNA-seq of HUVECs in 3D-printed GelMA hydrogel (DESeq2, GSEA); type: cell-based, human
Excerpt: (§4) The bioink used in HUVEC viability experiment (FIGS. 3A, 3D) consists of 5% GelMA, 0.6% LAP, 2 million/mL HUVEC cells, 0% or 35% IDX, and PBS as solvent. The bioink used in HSC viability experiment (FIG. 3B) consists of 2.5% GMHA, 0.5% GelMA, 0.6% LAP, 10 million/mL HSC cells, 0% or 35% IDX, and PBS as solvent. The bioink used in C2C12 viability experiment (FIG. 3C) consists of 1% AlgMA, 0.25% GelMA, 0.6% LAP, 10 million/mL C2C12 cells, 0% or 35% IDX, and PBS as solvent. The bioink used in HUVEC RNAseq experiment (FIG. 3G) consists of 5% GelMA, 0.6% LAP, 10 million/mL HUVEC cells, 0% or 35% IDX, and PBS as solvent.
This is especially important for vasculature-on-a-chip studies, where the metabolism and immune-regulation of the endothelium is of interest. […] Here, RNA-sequencing (RNA-seq) was performed to comprehensively investigate the potential changes caused by IDX exposure in the HUVECs in 3D-printed GelMA hydrogel.
Differential expression was first investigated with DESEQ2. […] To further evaluate the biological impact that IDX brought to the bioprinted vasculature, Gene Set Enrichment Analysis (GSEA) using the Molecular Signature Database (MSigDB) was used. […] The heme metabolism is believed to be a result of the oxidative stress induced by the IDX, and the enrichment in the complement system is potentially related to inflammatory responses. These findings correlate well with the clinically observed adverse effects and previous toxicological studies of IDX.
HUVECs were 3D printed in 250 μm slabs using GelMA bioink with 0% or 35% IDX. After 7 days of culture, the RNAs from the 3D printed slabs are extracted with TRIzol reagent (15596018, Ambion) followed by purification using spin column method with Direct-zol RNA Microprep (R2060, Zymo Research). The RNA quality evaluation and sequencing was performed by Novogen Inc. The sequencing data was analyzed with FastQC, trimmed with Trimmomatic, aligned with HISAT2, annotated with StringTie. Differential gene expression was analyzed with DESeq2. Gene set enrichment analysis was performed with GSEA_4.2.3 (Broad Institute). Network analysis was performed with Cytoscape 3.9.1 using the EnrichmentMap application.

[8] = tested on: HUVEC; experiment: Live/Dead staining of printed HUVEC thin slabs; type: cell-based; settings: HUVEC in GelMA thin slabs
Excerpt: as §4, §3
The cell viability was also evaluated with Live/Dead staining. At designated time points, the slabs were washed with DPBS twice, incubated with 2 μM Calcein AM (C3099, Invitrogen) and 3 μM propidium iodide (P3566, Invitrogen) in the fresh culture media at their regular incubation condition for 30 min. After incubation, the slabs were washed with DPBS twice and imaged with Leica DMI6000B fluorescence microscope. The live cell percentage was counted using particle analysis tool in ImageJ.

[9] = Brix refractometer measurement of 5% GelMA bioink with contrast agents; type: physicochemical; settings: 5% GelMA bioink, 0, 20, 30, 40, 50% w/v contrast agent
Method: FIGS. 14A and 14B plot the results of measurement using a Brix refractometer of 5% GelMA bioink with various concentrations (0, 20, 30, 40, 50% w/v) of the contrast agents ioversol and iohexol, respectively. For comparison, a 100% (w/v) sample of each contrast agent was also measured. Since this method measures the number of dissolved solids in a liquid based on its specific gravity, the units are in Brix %. FIGS. 14C and 14D show the Brix % data converted to refractive index.

[10] = bioink 5% GelMA, 40 million/mL 293T cells, 30% IDX, 405 nm
[11] = 35% vs 0% IDX, 7 days after bioprinting, |log2FoldChange|>0.5849, p<0.05

SMILES	effect on cells' metabolic activity (CCK8) compared to controls [1]	effect on cells' metabolic activity (CCK8) compared to controls [2]	reduction of scattering ([3]; 30% IDX vs bioink without refractive index tuning)	reduced scattering coefficient [3, 10]	scattering coefficient [3, 10]	effect on cells' metabolic activity (CCK8) compared to controls [4]	refractive index of the bioink versus IDX concentration ([5]; 5% GelMA, IDX 20% to 35%, 405 nm)	refractive index ([5]; IDX solution)	cell morphology / endothelialization [6]	genes downregulated [7, 11]	genes significantly upregulated [7, 11]	principal component analysis clustering of samples ([7]; 35% vs 0% IDX, n=3)	curated collection gene sets downregulated ([7]; response to IDX exposure)	curated collection gene sets upregulated ([7]; response to IDX exposure)	ontology collection gene sets downregulated ([7]; response to IDX exposure)	ontology collection gene sets upregulated ([7]; response to IDX exposure)	hallmark gene sets significantly enriched (GSEA) ([7]; samples printed with IDX bioink, FDR<25%, p<0.05)	cell viability (live cell percentage) ([8]; 0% or 35% IDX, Day 1, Day 3, Day 7)	difference in cell viability between 0% and 35% IDX ([8]; n=4, p>0.1 for all pairs)	tuning of bioink refractive index [9]
CC(=O)N(CC(O)CN(C(C)=O)c1c(I)c(C(=O)NCC(O)CO)c(I)c(C(=O)NCC(O)CO)c1I)c1c(I)c(C(=O)NCC(O)CO)c(I)c(C(=O)NCC(O)CO)c1I (centres unmarked) [IDX, iodixanol]	no statistically significant effect	no statistically significant effect	approximately 10 fold	0.014 mm^−1	1.377 mm^−1	no statistically significant effect	linearly increases	greater than 1.4	no qualitative differences observed	569 genes	587 genes	did not cluster into two groups	11 gene sets	3 gene sets	1 gene set	18 gene sets	xenobiotic metabolism, heme metabolism, and complement gene sets	greater than 90%	No statistically significant difference	–
O=C(NCC(O)CO)c1c(I)c(C(=O)NCC(O)CO)c(I)c(N(CCO)C(=O)CO)c1I (centres unmarked) [ioversol]	–	–	–	–	–	–	–	–	–	–	–	–	–	–	–	–	–	–	–	can effectively tune its refractive index
